In article PMC6516660, “Construction of a pathway to C50-ε-carotene” (PLoS ONE, 2019):
Residue numbers refer to the chain shown, from its start.

Experiments:
Assay in all cases: carotenoid production in E. coli, HPLC-PDA-MS
Assay type in all cases: cell-based
LsE = molecular target: T1, LsE (Lactuca sativa, UniProt Q9AXK7); settings: E. coli making C40-lycopene; product ε,ε-carotene
T1 construct: pUCara plasmid, expressed in E. coli XL1-Blue with carotenoid pathway enzymes
T1 sequence (Q9AXK7 1-533 limits assumed): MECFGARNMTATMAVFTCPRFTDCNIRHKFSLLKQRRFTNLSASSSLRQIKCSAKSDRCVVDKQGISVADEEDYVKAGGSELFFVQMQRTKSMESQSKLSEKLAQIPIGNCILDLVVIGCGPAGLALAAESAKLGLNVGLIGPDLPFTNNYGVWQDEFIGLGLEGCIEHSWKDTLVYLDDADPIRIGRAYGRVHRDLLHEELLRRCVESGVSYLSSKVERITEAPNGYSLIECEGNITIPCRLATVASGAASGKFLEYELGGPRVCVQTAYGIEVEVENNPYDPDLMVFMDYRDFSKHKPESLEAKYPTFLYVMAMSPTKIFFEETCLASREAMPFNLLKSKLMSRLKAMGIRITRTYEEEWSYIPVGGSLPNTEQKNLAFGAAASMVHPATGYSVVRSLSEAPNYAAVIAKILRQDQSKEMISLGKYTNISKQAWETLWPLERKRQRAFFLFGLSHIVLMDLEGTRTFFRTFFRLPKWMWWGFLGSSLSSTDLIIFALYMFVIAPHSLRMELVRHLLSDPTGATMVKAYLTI

AtE (At-y2) [1] = molecular target: T2, AtE (At-y2) (Arabidopsis thaliana, UniProt Q38932)
T2 construct: gene LUT2; full-length (transit peptide kept), pUCara plasmid, expressed in E. coli XL1-Blue with carotenoid pathway enzymes
T2 sequence (Q38932 1-524): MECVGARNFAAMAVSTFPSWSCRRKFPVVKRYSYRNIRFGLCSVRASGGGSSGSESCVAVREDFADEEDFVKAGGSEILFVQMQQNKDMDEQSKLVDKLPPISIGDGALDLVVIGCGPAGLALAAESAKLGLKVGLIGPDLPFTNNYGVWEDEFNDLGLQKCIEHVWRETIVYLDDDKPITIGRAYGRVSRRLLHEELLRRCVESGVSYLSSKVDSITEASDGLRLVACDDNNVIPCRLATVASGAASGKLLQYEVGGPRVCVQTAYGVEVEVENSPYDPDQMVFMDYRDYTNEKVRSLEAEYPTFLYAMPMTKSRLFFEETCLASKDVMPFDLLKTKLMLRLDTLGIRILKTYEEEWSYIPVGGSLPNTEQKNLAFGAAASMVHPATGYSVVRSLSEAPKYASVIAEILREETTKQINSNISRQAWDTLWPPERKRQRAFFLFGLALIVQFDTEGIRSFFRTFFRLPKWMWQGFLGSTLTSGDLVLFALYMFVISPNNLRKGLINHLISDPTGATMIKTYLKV

AtE (At-y2) [2] = molecular target: T3, AtE (At-y2) (Arabidopsis thaliana, UniProt Q38932, L448H); settings: E. coli making C40-lycopene
T3 construct: gene LUT2; full-length (transit peptide kept), pUCara plasmid, expressed in E. coli XL1-Blue with carotenoid pathway enzymes
T3 sequence (Q38932 1-524 L448H): T2 sequence (Q38932 1-524) with L448H

SMILES | carotenoid production in E. coli, HPLC-PDA-MS (LsE) | carotenoid production in E. coli, HPLC-PDA-MS (AtE (At-y2) [1]; E. coli making C40-lycopene, product δ-carotene (ε,ψ-carotene)) | carotenoid production in E. coli, HPLC-PDA-MS (AtE (At-y2) [2]) | carotenoid production in E. coli, HPLC-PDA-MS (AtE (At-y2) [1]; E. coli making C50-lycopene, TB medium, L-arabinose induction, product C50-ε,ε-carotene)
CC(C)=CCC/C(C)=C/C=C/C(C)=C/C=C/C(C)=C/C=C/C=C(C)/C=C/C=C(C)/C=C/C=C(\C)CCC=C(C)C [C40-lycopene] | LsE could equally and efficiently act on both sides of C40-lycopene (Fig 3B) | this enzyme fully consumed its natural substrate C40-lycopene and yielded ε, ψ-carotene | very subtle effect (if not none) of L448H also in the natural C40 pathway | –
CC(C)=CCC/C(C)=C/C=C/C(C)=C/C=C/C(C)=C/C=C/C(C)=C/C=C/C=C(C)/C=C/C=C(C)/C=C/C=C(C)/C=C/C=C(\C)CCC=C(C)C [C50-lycopene] | – | – | – | AtE cyclized both ends of the C50-lyopene (Fig 2C)
